Measured values taken from PMC6687188, “Novel lactate dehydrogenase inhibitors with in vivo efficacy against Cryptosporidium parvum” (PLoS Pathogens, 2019).
Read-outs that look alike come from different tables or passages of the source.

Columns and labels:
[1] = system: Cryptosporidium parvum; parameters: method as in PMID 18591280; conditions: read-out: IC50 for inhibition of C. parvum growth in HCT-8 cells; cited from earlier work
[2] = system: Cryptosporidium parvum; test: In vivo anti-Cryptosporidium efficacy: real-time PCR of C. parvum DNA in feces of infected Gamma interferon knockout mice
Procedure: Gamma interferon knockout mice (B6.129S7-Ifng), 8 weeks of age, were purchased from Charles River, USA. The care and use of the mice was done following the guidelines of protocol number 17024 approved by the University of Illinois at Urbana-Champaign, USA. The animals were allowed to acclimatize for 1 week before experiments commenced. Stock solutions of recombinant CpLDH inhibitors reconstituted in DMSO were diluted in sterile distilled water to reduce the final amount of DMSO in the solution to less than 1% (v/v) before administering them to mice. […] An equivalent volume of PBS containing a cocktail of penicillin (100 units/ml), streptomycin (100 μg/ml), chloramphenicol (34 μg/ml) and amphotericin (0.25 μg/ml) was added to the fecal samples and stored at 4°C until use for quantification of C. parvum genomic DNA load. […]
Genomic DNA was extracted from individual fecal samples collected from mice at different days as described above. […] Quantification of the amount of C. parvum 18s rRNA gene (GenBank accession number AF164102) was performed essentially as described previously. […] The PCR product was fractionated on agarose gel, extracted using the QIAquick Gel extraction kit (Qiagen, USA), and the concentration measured by Nanodrop Spectrophotometer (Fisher, USA). Ten-fold serial dilutions of the extracted DNA fragment were made and used as quantification standards for real-time PCR. […]

[3] = system: Cryptosporidium parvum; test: In vitro anti-Cryptosporidium assay in HCT-8 cells (immunofluorescence); assay type: cell-based
Procedure: HCT-8 cells were cultured in supplemented RPMI-1640 medium in 96-well plates. When the cells were confluent, old medium was replaced with fresh medium. To one set of wells, varying concentrations of recombinant CpLDH inhibitors (reconstituted in DMSO and diluted in RPMI medium) were added, while another set was left without inhibitors. Paromomycin was used as a positive control drug reconstituted in distilled sterile water. Then, 4 x 10^4 freshly excysted sporozoites were added to each well and incubated at 37°C with 5% CO2. After 2 h incubation, varying concentrations of CpLDH inhibitors were added to the set of infected cells that were not treated initially. Control infected cells without inhibitors, but with added DMSO volumes equivalent to those used in the wells with inhibitors, were included. The cells were maintained in culture for a total of either 48 h or 72 h and processed for immunofluorescence assay as previously described. Briefly, medium was decanted and the cells fixed with methanol-acetic acid (9:1) for 2 minute at room temperature. The cells were rehydrated and permeabilized by two successive washes with buffer (0.1% Triton X-100, 0.35 M NaCl, 0.13 M Tris-base, pH 7.6) and blocked with 5% normal goat serum, followed by staining with antibody to C. parvum (SporoGlo; Waterborn, Inc.) overnight at 4°C. The stained cells were washed twice with PBS, followed by water, and then imaged with an inverted fluorescence microscope. Fluorescence quantification was done using ImageJ version 1.37v software (NIH).

[4] = system: HCT-8 cells; parameters: method as in PMID 10882689, PMID 18591280; conditions: concentrations above 1000 μM; cited from earlier work
[5] = system: Cryptosporidium parvum; test: Histopathology of distal small intestine of infected mice (denuded villi); assay type: in vivo; conditions: 9 days post-infection
Procedure: Gamma interferon knockout mice (B6.129S7-Ifng), 8 weeks of age, were purchased from Charles River, USA. The care and use of the mice was done following the guidelines of protocol number 17024 approved by the University of Illinois at Urbana-Champaign, USA. The animals were allowed to acclimatize for 1 week before experiments commenced. Stock solutions of recombinant CpLDH inhibitors reconstituted in DMSO were diluted in sterile distilled water to reduce the final amount of DMSO in the solution to less than 1% (v/v) before administering them to mice. Prior to testing the anti-Cryptosporidium effect of the inhibitors in mice, the tolerability of each inhibitor was tested by oral gavage using varying dosages (100–2000 mg/kg body weight) of each inhibitor in groups of mice (three mice for each dose) daily for 7 days. Mice were observed daily for signs of toxicity including changes from normal physical activity, respiration, body temperature, feeding, posture, fur condition or occurrence of death. […] Mice were allocated to groups as follows: “Infected plus inhibitor treatment”; “Infected minus inhibitor treatment”; “Uninfected minus inhibitor treatment” and “Infected plus paromomycin treatment”. Each group contained at least three mice. Each mouse in the infection groups received 5,000 C. parvum oocysts (resuspended in 50 μl of PBS) by oral gavage. Mice were housed individually in cages lined with sterile gauze as bedding. One day post-infection (PI), daily oral gavage administration of recombinant CpLDH inhibitor or paromomycin commenced and continued for a total of 7 days. Untreated mice received an equivalent volume of sterile distilled water (containing DMSO equivalent to the amount administered in the inhibitor-treated group) by oral gavage. […] An equivalent volume of PBS containing a cocktail of penicillin (100 units/ml), streptomycin (100 μg/ml), chloramphenicol (34 μg/ml) and amphotericin (0.25 μg/ml) was added to the fecal samples and stored at 4°C until use for quantification of C. parvum genomic DNA load. […]

[6] = Tolerability in mice, daily oral gavage for 7 days; assay type: in vivo; conditions: daily oral gavage over 7 days, no toxicity signs
Procedure: Gamma interferon knockout mice (B6.129S7-Ifng), 8 weeks of age, were purchased from Charles River, USA. The care and use of the mice was done following the guidelines of protocol number 17024 approved by the University of Illinois at Urbana-Champaign, USA. The animals were allowed to acclimatize for 1 week before experiments commenced. Stock solutions of recombinant CpLDH inhibitors reconstituted in DMSO were diluted in sterile distilled water to reduce the final amount of DMSO in the solution to less than 1% (v/v) before administering them to mice. Prior to testing the anti-Cryptosporidium effect of the inhibitors in mice, the tolerability of each inhibitor was tested by oral gavage using varying dosages (100–2000 mg/kg body weight) of each inhibitor in groups of mice (three mice for each dose) daily for 7 days. Mice were observed daily for signs of toxicity including changes from normal physical activity, respiration, body temperature, feeding, posture, fur condition or occurrence of death. […] An equivalent volume of PBS containing a cocktail of penicillin (100 units/ml), streptomycin (100 μg/ml), chloramphenicol (34 μg/ml) and amphotericin (0.25 μg/ml) was added to the fecal samples and stored at 4°C until use for quantification of C. parvum genomic DNA load. […]

[7] = biological target: recombinant CpLDH protein (Cryptosporidium parvum, UniProt Q9GT92, F198L/K295E/R251K)
[8] = system: HCT-8 cells; test: Compound cytotoxicity assay (WST-1 cell proliferation reagent); conditions: read-out: CYTOTOXICITY IC50; HCT-8 cells, 24 h
Procedure: A colorimetric assay using the cell proliferation reagent WST-1 (Roche, USA) for the quantification of cell viability was performed. […] When the cells were confluent, the old medium was replaced with fresh medium with or without varying concentrations of chemical compound. After 24 h of culture, 10 μl of the cell proliferation reagent WST-1, (for quantification of cell viability) was added to each well, mixed and the plates incubated for 1 h at 37 C with 5% CO2 in the dark. […] Three independent assays were performed and the dose–response curves of the means of triplicate assays were generated using GraphPad PRISM software to derive the half maximal inhibitory concentration (IC50) of compounds in HCT-8 cells.

## NC[C@@H]1O[C@H](O[C@H]2[C@@H](O)[C@H](O[C@@H]3[C@@H](O)[C@H](N)C[C@H](N)[C@H]3O[C@H]3O[C@H](CO)[C@@H](O)[C@H](O)[C@H]3N)O[C@@H]2CO)[C@H](N)[C@@H](O)[C@@H]1O [paromomycin, reference compound]
[1]
  IC50: 711 µM
[2]; day 7 post-infection, NSC158011 400 mg/kg, paromomycin 100 mg/kg
  reduction of shedding of C. parvum in mice feces compared to untreated infected mice: about 3000 fold
[3]; Cryptosporidium parvum, HCT-8, 48 h post-infection, positive control, time of addition not specified, read-out: IC50, inhibition of C. parvum growth
  IC50: 450 µM
[3]; Cryptosporidium parvum, HCT-8, 72 h post-infection, positive control, time of addition not specified, read-out: IC50, inhibition of C. parvum growth
  IC50: 400 µM
[4]
  cytotoxicity in HCT-8 cells: negligible
[5]
  reduction of percentage of denuded intestinal villi compared to infected untreated mice: ≥ 7 fold

## O=C1c2ccccc2C(=O)c2c(O)c(O)cc(O)c21 [NSC10447]
[6]
  highest tolerable dose in mice: 1000 mg/kg
[7]
  MEAN CpLDH INHIBITION (%): 39.07%
[7]; read-out: IC50, inhibition of recombinant CpLDH activity
  IC50: 46.3 µM
[2]; 250, 500 and 1000 mg/kg, day 3 until day 8
  lower C. parvum DNA load in feces compared to infected untreated: at least 50%
[3]; 48 h post-infection, concentration at least 50% lower than cytotoxicity IC50
  C. parvum proliferation in vitro, initial screen (in words): significantly (P < 0.05) inhibit C. parvum proliferation
[3]; compound added at the time of infection, HCT-8 cells, read-out: IC50, inhibition of C. parvum growth at 72 h p.i.
  IC50: 83.6 µM
[3]; read-out: IC50, inhibition of C. parvum growth at 48 h p.i. (2 h), compound added 2 h post-infection, HCT-8 cells
  IC50: 79.5 µM
[3]; read-out: IC50, inhibition of C. parvum growth at 48 h p.i., compound added at the time of infection, HCT-8 cells
  IC50: 72.7 µM
[3]; read-out: IC50, inhibition of C. parvum growth at 72 h p.i. (2 h), compound added 2 h post-infection, HCT-8 cells
  IC50: 95.2 µM
[8]
  IC50: 290 µM
[5]
  reduction of percentage of denuded intestinal villi compared to infected untreated mice: ≥ 7 fold
[5]; distal small intestine
  intestinal histopathology (in words): prevented villous atrophy and maintained the integrity of the intestinal mucosa
